The values that follow come from patent US9796714B2, “Calcium channel agonists” (University of Pittsburgh—Of the Commonwealth System of …, priority 2013, dated 2017).

Where two headings read alike, the source gives them in different places. Some results are limits rather than exact numbers.

A short description of data set [1]: Solubility in saline with 1% DMSO. It counts as physicochemical. The conditions noted are these: saline or isotonic, kinetic from dmso stock.
The target in data set [2] is T1, N-type Ca^2+ channel (Cav2.2) (Rattus norvegicus, UniProt Q02294).
T1 construct: expressed in transfected cells; later also transient transfection
T1 sequence (Q02294 whole entry): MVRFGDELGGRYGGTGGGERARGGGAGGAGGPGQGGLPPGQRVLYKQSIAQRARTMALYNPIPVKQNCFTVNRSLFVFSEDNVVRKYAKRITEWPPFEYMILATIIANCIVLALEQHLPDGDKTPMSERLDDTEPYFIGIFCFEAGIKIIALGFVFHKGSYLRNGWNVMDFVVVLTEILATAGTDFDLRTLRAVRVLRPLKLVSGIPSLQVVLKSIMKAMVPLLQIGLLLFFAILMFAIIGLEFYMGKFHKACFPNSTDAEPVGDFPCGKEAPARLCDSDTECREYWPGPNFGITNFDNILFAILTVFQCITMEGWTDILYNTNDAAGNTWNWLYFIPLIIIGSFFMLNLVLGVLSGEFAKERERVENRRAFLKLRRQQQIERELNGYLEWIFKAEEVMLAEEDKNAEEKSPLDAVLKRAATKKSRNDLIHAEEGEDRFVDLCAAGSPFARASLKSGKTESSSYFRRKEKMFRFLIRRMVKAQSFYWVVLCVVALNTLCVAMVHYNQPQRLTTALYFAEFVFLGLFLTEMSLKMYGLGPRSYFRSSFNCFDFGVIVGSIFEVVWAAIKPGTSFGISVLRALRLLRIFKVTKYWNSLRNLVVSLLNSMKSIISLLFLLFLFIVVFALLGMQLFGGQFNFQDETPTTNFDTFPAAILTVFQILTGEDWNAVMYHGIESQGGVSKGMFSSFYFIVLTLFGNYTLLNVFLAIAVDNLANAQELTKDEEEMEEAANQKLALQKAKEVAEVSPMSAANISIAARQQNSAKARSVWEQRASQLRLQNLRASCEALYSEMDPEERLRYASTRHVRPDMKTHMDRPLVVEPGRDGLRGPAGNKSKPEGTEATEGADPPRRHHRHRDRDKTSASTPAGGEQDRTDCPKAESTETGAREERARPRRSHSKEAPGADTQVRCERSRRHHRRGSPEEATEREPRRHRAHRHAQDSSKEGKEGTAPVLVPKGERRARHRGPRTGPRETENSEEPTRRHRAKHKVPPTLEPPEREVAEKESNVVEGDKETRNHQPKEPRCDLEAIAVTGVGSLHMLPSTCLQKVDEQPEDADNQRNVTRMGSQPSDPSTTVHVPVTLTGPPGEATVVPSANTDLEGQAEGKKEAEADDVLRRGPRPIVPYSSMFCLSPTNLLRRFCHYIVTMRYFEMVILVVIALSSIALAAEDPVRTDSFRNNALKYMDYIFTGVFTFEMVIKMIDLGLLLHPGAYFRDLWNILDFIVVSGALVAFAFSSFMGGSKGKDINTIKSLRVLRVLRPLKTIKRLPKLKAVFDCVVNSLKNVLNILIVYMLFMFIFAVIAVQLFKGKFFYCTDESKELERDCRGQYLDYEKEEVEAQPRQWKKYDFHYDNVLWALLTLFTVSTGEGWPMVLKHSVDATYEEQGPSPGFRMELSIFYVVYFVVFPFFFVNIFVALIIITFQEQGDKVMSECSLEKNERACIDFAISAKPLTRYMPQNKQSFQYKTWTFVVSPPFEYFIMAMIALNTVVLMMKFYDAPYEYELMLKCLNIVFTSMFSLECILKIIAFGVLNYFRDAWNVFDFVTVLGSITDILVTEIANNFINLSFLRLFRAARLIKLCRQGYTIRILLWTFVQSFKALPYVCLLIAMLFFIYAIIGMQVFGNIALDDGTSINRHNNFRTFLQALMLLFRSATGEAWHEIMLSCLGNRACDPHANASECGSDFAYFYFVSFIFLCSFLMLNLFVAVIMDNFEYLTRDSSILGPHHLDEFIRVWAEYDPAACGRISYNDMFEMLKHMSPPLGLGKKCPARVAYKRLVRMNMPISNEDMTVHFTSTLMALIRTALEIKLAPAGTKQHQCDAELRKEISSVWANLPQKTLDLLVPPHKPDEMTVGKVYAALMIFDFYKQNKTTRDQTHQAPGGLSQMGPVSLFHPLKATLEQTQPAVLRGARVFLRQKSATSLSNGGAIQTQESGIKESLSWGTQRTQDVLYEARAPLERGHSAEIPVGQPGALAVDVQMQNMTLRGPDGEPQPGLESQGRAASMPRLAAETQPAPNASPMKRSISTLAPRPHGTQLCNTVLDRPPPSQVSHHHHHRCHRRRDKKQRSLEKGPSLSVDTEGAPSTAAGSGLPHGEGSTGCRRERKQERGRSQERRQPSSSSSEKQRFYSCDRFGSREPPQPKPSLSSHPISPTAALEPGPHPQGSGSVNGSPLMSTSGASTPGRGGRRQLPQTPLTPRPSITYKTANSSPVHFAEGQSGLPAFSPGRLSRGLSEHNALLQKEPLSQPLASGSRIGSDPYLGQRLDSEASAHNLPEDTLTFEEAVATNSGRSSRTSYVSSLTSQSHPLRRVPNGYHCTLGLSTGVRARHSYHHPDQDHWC
As to the kind of experiment: N-type Ca2+ channel agonist activity, whole-cell perforated patch clamp of tail currents in tsA201 cells. It counts as cell-based. As to the method: tsA201 cells expressing calcium channels. […] For subsequent evaluation of effects on N-, P/Q-, or L-type channels, tsA-201 cells were transiently transfected with Cav2.2, Cav2.1, or Cav1.3, in combination with Cavβ3 and […] (Addgene, Cambridge Mass.) using FuGENE 6 (Life Technologies, Grand Island, N.Y.). All cells were maintained in DMEM supplemented with 10% fetal bovine serum. For the stable cell line expressing N-type channels, 25 μg/mL zeocin, 5 μg/mL blasticidin, and 25 μg/mL hygromycin were added as selection agents.
Whole-cell patch clamp recordings of calcium current. […] Briefly, the pipette solution consisted of […] Cs2SO4, 60 mM CsCl, 1 mM MgCl2, 10 mM 4-(2-hydroxyethyl)-1-piperazineethanesulfonic acid (HEPES) at pH 7.4. […] Patch pipettes were fabricated from borosilicate glass and pulled to a resistance of about 1 MΩ. Before each experiment, a stock solution consisting of 3 mg amphotericin-B dissolved into 50 μL anhydrous DMSO was made. […] Capacitive currents and passive membrane responses to voltage commands were subtracted from the data. Currents were amplified by an Axopatch 200B amplifier, filtered at 5 KHz, and digitized at 10 KHz for subsequent analysis using pClamp software (Axon Instruments/Molecular Devices; Sunnyvale, Calif.). […] To measure effects on calcium channel tail currents, the tail current integral was measured before and after application of a derivative, with the integral of each trace being normalized to its peak. All experiments were carried out at room temperature (22° C.). […] All other salts and chemicals were obtained from Sigma-Aldrich chemical company (St. Louis, Mo.).
(§1) Statistical Analysis. Statistical analysis was performed using either GraphPad Prism 5 (GraphPad Software, Inc.) or Origin 7 (OriginLab) software. For the dose-response analyses on Ca^2+ current, each concentration of the four different compounds was tested in 3-6 cells. […] All EC50 and IC50 values and their respective errors were determined by performing 100 iterations of a logistic function curve fit. Data are presented as mean±s.e.m. unless otherwise noted.
For orientation: Patch clamp records ionic current or voltage across a cell membrane.

Data set [3] has as its target T2, mitogen-activated protein kinase (MAPK1(h)) (Homo sapiens, UniProt P27361).
T2 construct: purchased EMD Millipore KinaseProfiler service (Millipore UK Ltd.)
Briefly: Kinase inhibitory activity (EMD Millipore KinaseProfiler), MAPK1. It counts as biochemical. The conditions noted are these: 20 μM highest concentration used; read-out: MAPK EC50/IC50 affinities. The protocol:
(§2) Kinase inhibitory activity. Kinase inhibitory activities were determined using the EMD Millipore KinaseProfiler™ service (Millipore UK Ltd.). Each compound's kinase inhibitory activity was tested at three different concentrations (0.2 μM, 2 μM, and 20 μM) against five different kinases: Cdk1 cyclinB(h), cdk2 cyclinA(h), cdk5 p35(h), mitogen-activated protein kinase (MAPK1(h)) and myosin light-chain kinase (MLCK(h)).
(§3) Statistical Analysis. […] For the dose-response analyses on Ca^2+ current, each concentration of the four different compounds was tested in 3-6 cells. […] All EC50 and IC50 values and their respective errors were determined by performing 100 iterations of a logistic function curve fit.

Data set [4] addresses T3, myosin light-chain kinase (MLCK(h)) (Homo sapiens, UniProt Q9H1R3).
T3 construct: purchased EMD Millipore KinaseProfiler service (Millipore UK Ltd.)
As to the kind of experiment: Kinase inhibitory activity (EMD Millipore KinaseProfiler), MLCK. It counts as biochemical. The conditions noted are these: 20 μM highest concentration used; read-out: MLCK EC50/IC50 affinities. The protocol:
as §2, §3

A further data set concerns the target T4, cdk2 cyclinA(h) (Homo sapiens, UniProt P24941).
T4 construct: purchased EMD Millipore KinaseProfiler service (Millipore UK Ltd.)
Briefly: Kinase inhibitory activity (EMD Millipore KinaseProfiler), cdk2. It counts as biochemical. The protocol: as §2, §3

Another data set deals with T5, Cdk1 cyclinB(h) (Homo sapiens, UniProt P06493).
T5 construct: purchased EMD Millipore KinaseProfiler service (Millipore UK Ltd.)
T5 sequence (P06493 whole entry): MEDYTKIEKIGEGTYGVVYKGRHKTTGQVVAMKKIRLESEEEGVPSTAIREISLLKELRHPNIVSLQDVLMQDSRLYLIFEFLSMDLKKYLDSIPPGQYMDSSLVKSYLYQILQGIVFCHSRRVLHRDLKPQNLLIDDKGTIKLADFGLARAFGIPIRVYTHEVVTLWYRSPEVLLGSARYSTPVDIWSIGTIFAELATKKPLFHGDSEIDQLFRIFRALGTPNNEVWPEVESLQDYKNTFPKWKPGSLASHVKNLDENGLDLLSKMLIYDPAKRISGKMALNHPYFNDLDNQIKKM
T5 sequence (P14635 whole entry partner): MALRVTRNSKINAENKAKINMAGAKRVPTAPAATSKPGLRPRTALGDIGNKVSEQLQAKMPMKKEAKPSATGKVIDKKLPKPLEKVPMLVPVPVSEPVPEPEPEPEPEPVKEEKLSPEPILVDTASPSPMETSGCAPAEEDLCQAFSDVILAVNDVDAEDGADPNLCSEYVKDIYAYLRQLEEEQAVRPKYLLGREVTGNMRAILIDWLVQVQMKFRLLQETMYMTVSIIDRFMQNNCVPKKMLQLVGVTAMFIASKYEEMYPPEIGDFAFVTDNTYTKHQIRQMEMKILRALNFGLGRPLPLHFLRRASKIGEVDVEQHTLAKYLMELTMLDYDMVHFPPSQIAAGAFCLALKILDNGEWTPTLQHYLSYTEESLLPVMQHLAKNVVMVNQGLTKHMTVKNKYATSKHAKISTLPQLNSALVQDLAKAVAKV
As to the kind of experiment: Kinase inhibitory activity (EMD Millipore KinaseProfiler), cdk1. It counts as biochemical. Conditions: 20 μM highest concentration used; read-out: Cdk1 EC50/IC50 affinities. The protocol: as §2, §1

The target in the next data set is T6, cdk5 p35(h) (Homo sapiens, UniProt Q00535).
T6 construct: purchased EMD Millipore KinaseProfiler service (Millipore UK Ltd.)
T6 sequence (Q00535 whole entry): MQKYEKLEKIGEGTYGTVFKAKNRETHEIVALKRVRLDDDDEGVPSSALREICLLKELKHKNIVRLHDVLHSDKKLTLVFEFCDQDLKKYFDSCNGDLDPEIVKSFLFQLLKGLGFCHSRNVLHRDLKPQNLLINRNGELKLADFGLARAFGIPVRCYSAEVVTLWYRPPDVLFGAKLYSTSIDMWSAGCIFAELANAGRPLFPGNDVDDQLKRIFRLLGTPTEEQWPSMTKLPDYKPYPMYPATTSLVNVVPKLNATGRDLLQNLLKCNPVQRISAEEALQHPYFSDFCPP
T6 sequence (Q15078 whole entry partner): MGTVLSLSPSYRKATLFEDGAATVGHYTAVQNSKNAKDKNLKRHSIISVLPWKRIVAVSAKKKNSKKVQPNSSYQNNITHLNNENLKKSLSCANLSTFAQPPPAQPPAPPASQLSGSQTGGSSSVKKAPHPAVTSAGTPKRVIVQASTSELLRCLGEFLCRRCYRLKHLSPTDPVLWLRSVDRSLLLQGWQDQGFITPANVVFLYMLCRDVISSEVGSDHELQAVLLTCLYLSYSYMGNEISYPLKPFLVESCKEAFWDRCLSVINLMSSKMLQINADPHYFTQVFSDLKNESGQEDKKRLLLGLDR
As to the kind of experiment: Kinase inhibitory activity (EMD Millipore KinaseProfiler), cdk5. It counts as biochemical. Conditions: 20 μM highest concentration used; read-out: Cdk5 EC50/IC50 affinities. The protocol: as §2, §1

For data set [5] the following is noted: cited from earlier work.
For the next data set, the system named is LEMS model NMJs. Briefly: Intracellular recordings at LEMS model mouse NMJs, 13x, DAP and combination (Example 4). The conditions noted are these: 50 μM 13x, […] DAP, or both. The protocol: To test this, intracellular microelectrode recordings were performed on ex vivo nerve-muscle preparations taken from LEMS passive-transfer model mice and measured the magnitude of acetylcholine released at the neuromuscular junction. The most sensitive method of quantifying the magnitude of acetylcholine released is to determine the quantal content. Quantal content is defined as the number of neurotransmitter-containing synaptic vesicles that are released from the nerve terminal during a single action potential stimulus. This value was determined by first measuring the area under the average action potential-evoked endplate potential (EPP) and then dividing this value by the area under the average single vesicle release event (miniature endplate potential; mEPP). This value could be compared between experimental groups to provide an accurate measurement of changes in the magnitude of acetylcholine released during a single action potential. Using this approach, the quantal content among five experimental conditions was compared: control NMJs, LEMS NMJs, LEMS NMJs exposed to 50 μM 13x, LEMS NMJs exposed to 1.5 μM DAP, and LEMS NMJs exposed to 50 μM 13x+1.5 μM DAP (FIG. 10). […]; EPP amplitude=10.18±0.62 mV) as compared with control serum treated mouse NMJs (QC=107.5±3.6; EPP amplitude=34.62±1.37 mV; Tarr et al., 2013). […] In fact, this 13x-mediated enhancement was very similar to what was observed after exposure of LEMS model NMJs to 1.5 μM DAP (QC=49.0±4.4; EPP amplitude=17.94±1.381 mV). […]; EPP amplitude=34.62±1.37 mV; Tarr et al., 2013). […] In summary, while either 13x or DAP alone caused about an 80% increase in transmitter release from LEMS model NMJs, the combination of 13x plus DAP caused about a 300% increase in transmitter release.

Data set [6] concerns LEMS passive transfer mouse NMJs. Briefly: Intracellular recordings at LEMS passive transfer mouse NMJs, ex vivo ETA nerve-muscle preparation (Example 3). The conditions noted are these: 50 μM, mean±SD, aBC2 LEMS passive transfer NMJs. As to the method: LEMS passive transfer. To test GV-58 in a LEMS model NMJ, an established LEMS passive transfer mouse model was utilized. To perform the passive transfer of LEMS, mice were injected with the serum of patients diagnosed with LEMS. […] Each serum sample was tested for the presence of voltage-gated Ca^2+ channel antibodies using a Ca^2+ channel antibody radioimmune assay (Kronus RIA kit, Star, Id.). Control serum was obtained from the University of Pittsburgh Medical Center blood bank. […]; 25-32 g; Charles River Laboratories) were divided into two groups: one group that received LEMS serum, and a control group that received control serum.
Intracellular recordings at mouse NMJs. […] A thin upper arm muscle, the epitrochleoanconeus (ETA), was chosen for these recordings. […] […]. A train of 10 EPPs was also collected in each muscle fiber using an inter-stimulus interval of 20 msec. To analyze the data, both the amplitudes and the areas under the waveforms (integral) were determined after correcting each digitized point in each trace for non-linear summation. Data were collected and analyzed using an Axoclamp 900A and the pClamp 10 suite of programs (Molecular Devices, Sunnyvale, Calif.).
Statistical Analysis. […] For the dose-response analyses on Ca^2+ current, each concentration of the four different compounds was tested in 3-6 cells. […]. All EC50 and IC50 values and their respective errors were determined by performing 100 iterations of a logistic function curve fit.

The mark [7] stands for this setting: whole cell perforated patch clamp, deactivation (tail) currents from N-type channels, read-out: N-Type Ca^2+ Channel Activity EC50 +/− SEM.
Where [8] appears, read: Table 3, calcium channel agonist, read-out: N-type EC50/IC50 affinities.
Setting [9] is: oral administration to patients.

T2 sequence (P27361 whole entry): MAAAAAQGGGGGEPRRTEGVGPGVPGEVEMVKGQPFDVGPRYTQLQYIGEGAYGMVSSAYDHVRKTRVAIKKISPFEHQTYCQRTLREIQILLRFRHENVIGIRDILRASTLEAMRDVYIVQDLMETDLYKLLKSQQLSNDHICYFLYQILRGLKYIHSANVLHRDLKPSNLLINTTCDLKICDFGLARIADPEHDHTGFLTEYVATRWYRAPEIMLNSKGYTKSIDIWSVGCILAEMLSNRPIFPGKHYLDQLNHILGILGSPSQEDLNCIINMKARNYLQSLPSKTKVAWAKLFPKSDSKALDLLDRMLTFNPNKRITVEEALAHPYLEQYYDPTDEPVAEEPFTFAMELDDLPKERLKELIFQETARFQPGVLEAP

Regarding `CC[C@H](CO)Nc1nc(NCc2ccccc2)c2ncn(C)c2n1` [Compound 13k, (R)-2-(6-(Benzylamino)-9-methyl-9H-purin-2-ylamino)butan-1-ol], the solubility in data set [1] was not above 200 µM. The EC50 in data set [2] (setting [7]) was more than 70 µM.

As to `CC[C@H](CO)Nc1nc(NC(c2ccccc2)c2ccccc2)c2ncn(C(C)C)c2n1` [Compound 13t, (R)-2-(6-(Benzhydrylamino)-9-isopropyl-9H-purin-2-ylamino)butan-1-ol], the EC50 in data set [2] (setting [7]) is more than 100 µM.

Take `CC[C@H](CO)Nc1nc(NCc2ccc(C)s2)c2ncn(C(C)C)c2n1` [Compound 13u, (R)-2-(9-Isopropyl-6-((5-methylthiophen-2-yl)methylamino)-9H-purin-2-ylamino)butan-1-ol]: the IC50 in data set [3] was more than 20 µM; in data set [4], 19.5 ± 8.65 µM. The “agonist effect on the Ca^2+ channel tail currents (in words)” value in [2] (N-type) is listed as “strong agonist effect”. Moreover, the “increased Ca^2+ channel agonism vs. (R)-roscovitine” value in [2] (N-type) is on record as approximately 4 fold. For the same molecule, the EC50 in [2] (setting [8]) and in [2] (setting [7]) was 11.3 ± 1.48 µM in each case.

Regarding `CC[C@H](CO)Nc1nc(NCc2cccc(C(F)(F)F)c2)c2ncn(C(C)C)c2n1` [Compound 13v, (R)-2-(9-Isopropyl-6-(3-(trifluoromethyl)benzylamino)-9H-purin-2-ylamino)butan-1-ol], the EC50 in data set [2] (setting [7]) was more than 100 µM.

In the case of `CC[C@H](CO)Nc1nc(NCc2ccc(C)s2)c2ncn(C)c2n1` [Compound 13w, (2R)-2-[(9-Methyl-6-{[(5-methylthiophen-2-yl)methyl]amino}-9H-purin-2-yl)amino]butan-1-ol], the IC50 at cdk2 cyclinA(h) (20 μM highest concentration used, read-out: Cdk2 EC50/IC50 affinities) was 3.04 ± 0.17 µM; on Cdk1 cyclinB(h) it was 10.5 ± 2.77 µM; in data set [3], more than 20 µM; in [4], more than 20 µM; at cdk5 p35(h), 2.81 ± 0.91 µM. Moreover, the EC50 turned out to be 3 µM at cdk2 cyclinA(h) (determined in duplicate at 0.2, 2, and 20 μM, read-out: Cdk2 Activity EC50 +/− SEM); 30 ± 1.87 µM in [2] (setting [8]); 30 ± 1.87 µM in [2] (setting [7]). Besides, the “decreased channel activity vs 13u” value in [2] was “ca. 3 fold”. The “agonist effect on the Ca^2+ channel tail currents (in words)” value in data set [2] (N-type) is recorded as “strong agonist effect”. In addition, the “maximal fold increase in the tail current integral relative to control” value in [2] (N-type channels) is recorded as approximately 13 fold.

Consider `Nc1ccncc1N` [DAP, 3,4-diaminopyridine, reference compound], for which the serum levels entry in [5] (clinical trials, 10-20 mg 3 times per day) is “about 0.5 μM”. Also, in data set [5] (setting [9]), the peak serum levels was 70 to 150 ng/mL and the “peak serum levels, corresponding concentration” value is 0.5 to 1.5 µM. In the data set with LEMS model NMJs, the “10th EPP of 50 Hz train as % of the first EPP (short-term plasticity)” value was approximately 132% and the “increase in transmitter release from LEMS model NMJs” value is recorded as approximately 80%. In addition, in the data set on LEMS model NMJs (LEMS model NMJs), the EPP amplitude is 17.94±1.381 mV. In the data set with LEMS model NMJs (LEMS model NMJs, mean±s.e.m.), the “quantal content (QC, area of EPP divided by area of mEPP)” value is 49.0±4.4.

Consider `Cn1cnc2c(NCc3ccccc3)nc(NCCO)nc21` [olomoucine, reference compound], for which, in data set [6], the “quantal content (EPP peak amplitude divided by mEPP peak amplitude)” value was determined as 33.4±11.3; the “quantal content determined from the area (integral) under EPP and mEPP waveforms” value is reported as 34.6±11.2. Also, in data set [6] (listed as oloumucine), the “quantal content (EPP peak amplitude divided by mEPP peak amplitude)” value is recorded as “slightly, but significantly smaller”; the “quantal content determined from the area (integral) under EPP and mEPP waveforms” value was “not significantly different”.

Broadly, the solubility is the concentration that dissolves in the medium under given conditions. Read a low solubility as little dissolved substance.
